Measured values published in patent US20220363719A1, “Reverse Amide-Linked Melanocortin Receptor-Specific Cyclic Peptides” (Palatin Technologies, Inc., priority 2020, published 2022).
pEC50: −log10 of the molar value. Where a SMILES comes first, the peptide text is derived from it. Bridges are numbered along the chain shown (N, C = ends). [ ]: non-standard residue; d: D form. The star is where a group is joined. ξ: configuration not given here. d1Nal = N[C@H](Cc1cccc2ccccc12)C(=O)O; Nle = CCCC[C@H](N)C(=O)O; Orn = NCCC[C@H](N)C(=O)O; Dab = NCC[C@H](N)C(=O)O; ξHyp = O=C(O)C1CC(O)CN1; Dap = NC[C@H](N)C(=O)O; Hexanoyl = CCCCCC(=O)*; Ahx = NCCCCCC(=O)O; Bn = c1ccc(C*)cc1; GABA = NCCCC(=O)O; βAla = NCCC(=O)O

Experiments:
Type in all cases: cell-based
[1] = molecular target: T1, hMC5r (Homo sapiens, UniProt P33032); experiment: cAMP agonist activity assay performed at CEREP (HTRF), MC5; conditions: determined by CEREP, CHO-K1 cells; for pEC50: cAMP HTRF; for Emax: control Alpha-MSH, read-out: Emax percent hMC5r* (percent of the maximal response obtained with the positive control)
T1 construct: Eurofins CEREP SA
Method: (§1) Evaluation of the agonist activity of compounds at the melanocortin receptors was determined by measuring their effects on cAMP production using the HTRF detection method at CEREP (Eurofins CEREP SA, Celle-Lévescault, France). The cells were suspended in HBSS buffer (Invitrogen) complemented with 20 mM HEPES (pH 7.4) and 500 μM IBMX, then distributed in microplates and incubated in the presence of HBSS (basal control), the test compound or the reference agonist. Incubation time, temperature, cell number, reference agonist and cell line information are included in the Table 1 below. For stimulated control measurement, separate assay wells contain reference compound. Following incubation, the cells are lysed and the fluorescence acceptor (D2-labeled cAMP) and fluorescence donor (anti-cAMP antibody labeled with europium cryptate) were added. After 60 minutes at room temperature, the fluorescence transfer was measured at excitation wavelength 337 nm and emission wavelengths 620 and 665 nm using a microplate reader (Envision, Perkin Elmer). The cAMP concentration was determined by dividing the signal measured at 665 nm by that measured at 620 nm (ratio).
(§2) The results are expressed as a percent of the control response to 1 μM of the reference. The standard reference agonist is tested in each experiment at several concentrations to generate a concentration-response curve from which its EC50 value is calculated.

[2] = molecular target: hMC3r (Homo sapiens, UniProt P41968); experiment: Alternative assay for agonist activity (intracellular cAMP), HEK-293 cells, recombinant MC3r; parameters: expressed in transfected cells; host or cells: HEK-293; conditions: for Emax: HEK293, not CEREP, reference NDP-α-MSH, read-out: Emax percent hMC3r (percent of the maximal response obtained with the positive control); for pEC50: not CEREP, cAMP HTRF
Method: (§3) Accumulation of intracellular cAMP was examined as a measure of the ability of the peptides to elicit a functional response in either HEK-293 cells that express recombinant MC3r or MC4r or B16-F10 (mouse) and HBL (human) cell lines that express native MC1 r. Confluent cells were detached from culture plates by incubation in enzyme-free cell dissociation buffer. Dispersed cells were suspended in Hank's Balanced Salt Solution containing 10 mM HEPES (pH 7.5), 1 mM MgCl2, 1 mM glutamine, 0.5% albumin and 0.3 mM 3-isobutyl-1-methyl-xanthine (IBMX), a phosphodiesterase inhibitor. The cells were dispensed into 96-well plates at a density of 0.5×10^5 cells per well and pre-incubated for 10 minutes. Cells were exposed for 15 minutes at 37° C. to peptides dissolved in DMSO (final DMSO concentration of 1%) at a concentration range of 0.05-5000 nM in a total assay volume of 200 μL. NDP-α-MSH was used as the reference agonist. cAMP levels were determined by an HTRF® cAMP cell-based assay system from Cisbio Bioassays utilizing cryptate-labeled anti-cAMP and D2-labeled cAMP, with plates read on a Perkin-Elmer Victor plate reader at […]. Data analysis was performed by nonlinear regression analysis with Graph-Pad Prism® software. The maximum efficacies of the test peptides were compared to that achieved by the reference melanocortin agonist NDP-α-MSH.

[3] = molecular target: hMC4r (Homo sapiens, UniProt P32245); experiment: Alternative assay for agonist activity (intracellular cAMP), HEK-293 cells, recombinant MC4r; parameters: expressed in transfected cells; host or cells: HEK-293; conditions: for Emax: HEK293, not CEREP, reference NDP-α-MSH, read-out: Emax percent hMC4r (percent of the maximal response obtained with the positive control); for pEC50: not CEREP, cAMP HTRF
Method: as §3

[4] = molecular target: T2, mMC1r (Mus musculus, UniProt Q01727); experiment: Alternative assay for agonist activity (intracellular cAMP), B16-F10 cells, native MC1r; parameters: B16-F10 (mouse) and HBL (human) cell lines that express native MC1 r; endogenous in cells; host or cells: B16-F10 mouse melanoma cells; conditions: not CEREP; for pEC50: cAMP HTRF; for Emax: reference NDP-α-MSH, read-out: Emax percent mMC1r (percent of the maximal response obtained with the positive control)
Method: as §3

[5] = molecular target: T2, mMC1r; experiment: cAMP agonist activity assay performed at CEREP (HTRF), MC1; conditions: determined by CEREP, B16-F1 cells; for pEC50: cAMP HTRF; for Emax: control NDP-alpha-MSH, read-out: Emax percent mMC1r* (percent of the maximal response obtained with the positive control)
Method: as §1, §2

[6] = molecular target: T3, hMC1r (Homo sapiens, UniProt Q01726); experiment: Alternative assay for agonist activity (intracellular cAMP), HBL cells, native MC1r; conditions: not CEREP; for pEC50: cAMP HTRF; for Emax: reference NDP-α-MSH, read-out: Emax percent hMC1r (percent of the maximal response obtained with the positive control)
T3 construct: B16-F10 (mouse) and HBL (human) cell lines that express native MC1 r; endogenous in cells; host or cells: HBL human melanoma cells
Method: as §3

Chain of hMC4r (P32245 whole entry): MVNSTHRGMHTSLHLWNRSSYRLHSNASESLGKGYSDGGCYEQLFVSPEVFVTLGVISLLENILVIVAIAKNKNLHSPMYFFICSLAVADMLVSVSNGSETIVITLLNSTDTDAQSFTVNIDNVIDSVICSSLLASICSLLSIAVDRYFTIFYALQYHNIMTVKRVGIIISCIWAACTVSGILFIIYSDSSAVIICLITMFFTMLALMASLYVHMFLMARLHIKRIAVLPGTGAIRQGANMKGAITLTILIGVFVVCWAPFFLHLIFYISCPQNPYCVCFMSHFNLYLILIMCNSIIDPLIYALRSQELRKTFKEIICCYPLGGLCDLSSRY
T2 sequence (Q01727 whole entry): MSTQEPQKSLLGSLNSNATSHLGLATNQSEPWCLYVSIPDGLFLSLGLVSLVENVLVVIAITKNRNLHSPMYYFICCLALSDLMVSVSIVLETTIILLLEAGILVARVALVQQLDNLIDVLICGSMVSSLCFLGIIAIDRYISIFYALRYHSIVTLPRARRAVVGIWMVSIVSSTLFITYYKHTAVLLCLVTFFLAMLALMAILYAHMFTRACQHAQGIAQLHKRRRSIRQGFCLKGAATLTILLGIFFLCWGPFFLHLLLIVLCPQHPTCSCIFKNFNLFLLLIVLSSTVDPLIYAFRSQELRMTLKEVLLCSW
Chain of hMC3r (P41968 whole entry): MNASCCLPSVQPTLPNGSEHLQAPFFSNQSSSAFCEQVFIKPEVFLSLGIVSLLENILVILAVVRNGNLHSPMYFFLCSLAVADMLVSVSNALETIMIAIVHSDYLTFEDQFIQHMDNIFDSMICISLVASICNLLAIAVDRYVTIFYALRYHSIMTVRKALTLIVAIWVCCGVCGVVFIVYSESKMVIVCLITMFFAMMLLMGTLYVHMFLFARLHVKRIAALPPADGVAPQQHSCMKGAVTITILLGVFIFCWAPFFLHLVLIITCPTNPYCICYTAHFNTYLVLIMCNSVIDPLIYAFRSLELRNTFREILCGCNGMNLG
T1 sequence (P33032 whole entry): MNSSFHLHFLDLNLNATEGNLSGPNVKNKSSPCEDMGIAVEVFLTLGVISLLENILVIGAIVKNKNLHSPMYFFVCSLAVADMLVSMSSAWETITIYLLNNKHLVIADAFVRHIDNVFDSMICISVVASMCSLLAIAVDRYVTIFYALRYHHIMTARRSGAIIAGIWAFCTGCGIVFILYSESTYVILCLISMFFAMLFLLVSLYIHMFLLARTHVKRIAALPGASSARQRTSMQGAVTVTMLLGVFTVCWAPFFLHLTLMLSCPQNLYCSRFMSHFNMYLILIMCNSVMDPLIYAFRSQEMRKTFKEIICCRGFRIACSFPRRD
T3 sequence (Q01726 whole entry): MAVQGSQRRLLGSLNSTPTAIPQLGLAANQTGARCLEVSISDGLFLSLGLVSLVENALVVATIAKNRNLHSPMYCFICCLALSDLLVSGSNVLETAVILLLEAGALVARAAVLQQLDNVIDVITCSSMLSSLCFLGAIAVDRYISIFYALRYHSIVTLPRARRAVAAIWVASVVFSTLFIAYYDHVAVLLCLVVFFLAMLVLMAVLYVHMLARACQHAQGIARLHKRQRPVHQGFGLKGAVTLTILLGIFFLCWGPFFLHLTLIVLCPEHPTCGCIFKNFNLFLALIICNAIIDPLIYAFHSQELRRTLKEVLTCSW

pEC50 [1]	Emax [1] [%]	Emax [2] [%]	pEC50 [2]	Emax [3] [%]	pEC50 [3]	pEC50 [4]	Emax [4] [%]	pEC50 [5]	Emax [5] [%]	pEC50 [6]	Emax [6] [%]	SMILES
9.64	96	14	< 5.00	33	8.30	8.70	61	–	–	–	–	CCCC[C@H](NC(C)=O)C(=O)N[C@H]1CCCCNC(=O)CCNC(=O)[C@H](Cc2c[nH]c3ccccc23)NC(=O)[C@H](CCCNC(=N)N)NC(=O)[C@@H](Cc2cccc3ccccc23)NC(=O)C2CC(OCc3ccccc3)CN2C1=O (stereo partly shown) [Peptide 2] (Ac-[Nle]K[ξHyp](Bn)[d1Nal]RW[βAla]; lactam 2-C)
9.70	93	12	< 5.00	31	8.30	8.70	67	–	–	–	–	CCCC[C@H](NC(C)=O)C(=O)N[C@H]1CCCNC(=O)CCNC(=O)[C@H](Cc2c[nH]c3ccccc23)NC(=O)[C@H](CCCNC(=N)N)NC(=O)[C@@H](Cc2cccc3ccccc23)NC(=O)C2CC(OCc3ccccc3)CN2C1=O (stereo partly shown) [Peptide 3] (Ac-[Nle][Orn][ξHyp](Bn)[d1Nal]RW[βAla]; lactam 2-C)
8.00	118	10	< 5.00	38	7.82	7.59	67	–	–	–	–	CCCC[C@H](NC(C)=O)C(=O)N[C@H]1CCCNC(=O)CNC(=O)[C@H](Cc2c[nH]c3ccccc23)NC(=O)[C@H](CCCNC(=N)N)NC(=O)[C@@H](Cc2cccc3ccccc23)NC(=O)C2CC(OCc3ccccc3)CN2C1=O (stereo partly shown) [Peptide 4] (Ac-[Nle][Orn][ξHyp](Bn)[d1Nal]RWG; lactam 2-C)
< 5.00	20	48	7.26	116	8.70	6.69	95	–	–	–	–	CC(=O)N[C@@H](CCCNC(=N)N)C(=O)N[C@H]1CNC(=O)CCCCCNC(=O)[C@H](Cc2c[nH]c3ccccc23)NC(=O)[C@H](CCCNC(=N)N)NC(=O)[C@@H](Cc2ccccc2)NC(=O)[C@H](CC(N)=O)NC1=O [Peptide 12] (Ac-R[Dap]N[dF]RW[Ahx]; lactam 2-C)
< 5.00	22	106	9.70	83	9.82	9.10	111	–	–	–	–	CC(=O)N[C@@H](CCCNC(=N)N)C(=O)N[C@H]1CCCCNC(=O)CCNC(=O)[C@H](Cc2c[nH]c3ccccc23)NC(=O)[C@H](CCCNC(=N)N)NC(=O)[C@@H](Cc2ccccc2)NC(=O)[C@H](Cc2c[nH]cn2)NC1=O [Peptide 14] (Ac-RKH[dF]RW[βAla]; lactam 2-C)
< 5.00	-0.5	12	< 5.00	14	5.11	6.00	84	5.89	83	8.00	94	CCCCCC(=O)N[C@H]1CNC(=O)CNC(=O)[C@H](CCCNC(=N)N)NC(=O)[C@@H](Cc2ccccc2)NC(=O)[C@H](Cc2c[nH]cn2)NC1=O [Peptide 17] (Hexanoyl-[Dap]H[dF]RG; lactam 1-C)

Second part, the compound before the results:

SMILES	pEC50 [1]	Emax [1] [%]	Emax [2] [%]	pEC50 [2]	Emax [3] [%]	pEC50 [3]	pEC50 [4]	Emax [4] [%]	pEC50 [5]	Emax [5] [%]	pEC50 [6]	Emax [6] [%]
CCCC[C@H](NC(C)=O)C(=O)N[C@H]1CCNC(=O)CCNC(=O)[C@H](Cc2c[nH]c3ccccc23)NC(=O)[C@H](CCCNC(=N)N)NC(=O)[C@@H](Cc2cccc3ccccc23)NC(=O)C2CC(OCc3ccccc3)CN2C1=O (stereo partly shown) [Peptide 5] (Ac-[Nle][Dab][ξHyp](Bn)[d1Nal]RW[βAla]; lactam 2-C)	9.13	77	5	< 5.00	32	7.96	8.30	75	–	–	–	–
CCCC[C@H](NC(C)=O)C(=O)N[C@H]1CNC(=O)CNC(=O)[C@H](Cc2c[nH]c3ccccc23)NC(=O)[C@H](CCCNC(=N)N)NC(=O)[C@@H](Cc2cccc3ccccc23)NC(=O)C2CC(OCc3ccccc3)CN2C1=O (stereo partly shown) [Peptide 6] (Ac-[Nle][Dap][ξHyp](Bn)[d1Nal]RWG; lactam 2-C)	–	–	6	< 5.00	36	7.06	6.28	34	–	–	–	–
CC(=O)N[C@@H](CCCNC(=N)N)C(=O)N[C@H]1CCCNC(=O)CCCNC(=O)[C@H](Cc2c[nH]c3ccccc23)NC(=O)[C@H](CCCNC(=N)N)NC(=O)[C@@H](Cc2ccccc2)NC(=O)[C@H](CC(N)=O)NC1=O [Peptide 8] (Ac-R[Orn]N[dF]RW[GABA]; lactam 2-C)	< 5.00	41	75	7.70	101	9.00	6.64	74	–	–	–	–
CC(=O)N[C@@H](CCCNC(=N)N)C(=O)N[C@H]1CCNC(=O)CCCCNC(=O)[C@H](Cc2c[nH]c3ccccc23)NC(=O)[C@H](CCCNC(=N)N)NC(=O)[C@@H](Cc2ccccc2)NC(=O)[C@H](Cc2c[nH]cn2)NC1=O [Peptide 9]	< 5.00	32	104	9.30	105	9.66	9.05	79	–	–	–	–
CC(=O)N[C@@H](CCCNC(=N)N)C(=O)N[C@H]1CNC(=O)CCCCCNC(=O)[C@H](Cc2c[nH]c3ccccc23)NC(=O)[C@H](CCCNC(=N)N)NC(=O)[C@@H](Cc2ccccc2)NC(=O)[C@H](Cc2c[nH]cn2)NC1=O [Peptide 11]	< 5.00	13	98	8.15	99	9.72	8.70	93	–	–	–	–
CC(=O)N[C@@H](CCCNC(=N)N)C(=O)N[C@H]1CCCNC(=O)CCCNC(=O)[C@H](Cc2c[nH]c3ccccc23)NC(=O)[C@H](CCCNC(=N)N)NC(=O)[C@@H](Cc2ccccc2)NC(=O)[C@H](Cc2c[nH]cn2)NC1=O [Peptide 13]	< 5.00	25	101	9.40	87	9.57	9.00	80	–	–	–	–
CC(=O)N[C@@H](CCCNC(=N)N)C(=O)N[C@H]1CCCCNC(=O)CCNC(=O)[C@H](Cc2c[nH]c3ccccc23)NC(=O)[C@H](CCCNC(=N)N)NC(=O)[C@@H](Cc2ccccc2)NC(=O)[C@H](CC(N)=O)NC1=O [Peptide 15] (Ac-RKN[dF]RW[βAla]; lactam 2-C)	6.85	44	90	8.70	94	9.52	6.85	102	–	–	–	–
CCCCCC(=O)N[C@H]1CNC(O)CCNC(=O)[C@H](CCCNC(=N)N)NC(=O)[C@@H](Cc2ccccc2)NC(=O)[C@H](Cc2c[nH]cn2)NC1=O (stereo partly shown) [Peptide 18]	< 5.00	3	16	5.11	68	5.68	7.05	99	6.74	90	8.30	89
